Test results reported in PubChem BioAssay AID1963844 (Molecular Pharmacology Branch, DTP, NCI, 2024).

System: 422866-222-R5-J1-PDC complex spheroid viability
Experiment: Anticancer human tumor 422866-222-R5-J1-PDC patient-derived pancreatic adenocarcinoma cell line growth inhibition [POLQ]
Settings: for IC50: curve of first compound; for viability, T/C: stronger effect = lower value
How it was run: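 Growth inhibition in 3D: complex spheroids (tumor PDC, HUVEC, MSC) treated with POLQ inhibitor combinations; where Cmax unknown, highest tested concentration 10 microM, except SN-38 at 1 microM.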

[1] = second compound 0.0316 µM, first compound 0.0316 µM
[2] = second compound 0.0316 µM, first compound 0.1 µM
[3] = second compound 0.0316 µM, first compound 0.316 µM
[4] = second compound 0.0316 µM, first compound 1 µM
[5] = second compound 0.0316 µM, first compound 3.16 µM
[6] = second compound 0.0316 µM, first compound 10 µM
[7] = second compound 0.1 µM, first compound 0.0316 µM
[8] = second compound 0.1 µM, first compound 0.1 µM
[9] = second compound 0.1 µM, first compound 0.316 µM
[10] = second compound 0.1 µM, first compound 1 µM
[11] = second compound 0.1 µM, first compound 3.16 µM
[12] = second compound 0.1 µM, first compound 10 µM
[13] = second compound 0.316 µM, first compound 0.0316 µM
[14] = second compound 0.316 µM, first compound 0.1 µM
[15] = second compound 0.316 µM, first compound 0.316 µM
[16] = second compound 0.316 µM, first compound 1 µM
[17] = second compound 0.316 µM, first compound 3.16 µM
[18] = second compound 0.316 µM, first compound 10 µM
[19] = second compound 1 µM, first compound 0.0316 µM
[20] = second compound 1 µM, first compound 0.1 µM
[21] = second compound 1 µM, first compound 0.316 µM
[22] = second compound 1 µM, first compound 1 µM
[23] = second compound 1 µM, first compound 3.16 µM
[24] = second compound 1 µM, first compound 10 µM
[25] = second compound 3.16 µM, first compound 0.0316 µM
[26] = second compound 3.16 µM, first compound 0.1 µM
[27] = second compound 3.16 µM, first compound 0.316 µM
[28] = second compound 3.16 µM, first compound 1 µM
[29] = second compound 3.16 µM, first compound 3.16 µM
[30] = second compound 3.16 µM, first compound 10 µM
[31] = second compound 10 µM, first compound 0.0316 µM
[32] = second compound 10 µM, first compound 0.1 µM
[33] = second compound 10 µM, first compound 0.316 µM
[34] = second compound 10 µM, first compound 1 µM
[35] = second compound 10 µM, first compound 3.16 µM
[36] = second compound 10 µM, first compound 10 µM
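Further: spheroids exposed to compounds for one week before readout.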
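Wherever viability, T/C is given: percent of DMSO vehicle wells luminescence so 100% = untreated viability.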

For `C=CC(=O)N1CCN(c2nc(=O)n(-c3c(C)ccnc3C(C)C)c3nc(-c4c(O)cccc4F)c(F)cc23)C(C)C1` (stereo unspecified) + COC1C(OC(N)=O)C(O)C(Oc2ccc3c(O)c(NC(=O)c4ccc(O)c(CC=C(C)C)c4)c(=O)oc3c2C)OC1(C)C, the IC50 (second compound 0.0316 µM) was less than 31.6 nM, the IC50 (second compound 0.1 µM) was less than 31.6 nM and the IC50 (second compound 0.316 µM) was less than 31.6 nM. The IC50 (second compound 1 µM) was less than 31.6 nM, the IC50 (second compound 3.16 µM) was less than 31.6 nM and the IC50 (second compound 10 µM) was less than 31.6 nM. For the same compound, the viability, T/C [1] was 33.4%, the viability, T/C [2] was 26.7% and the viability, T/C [3] was 29%. It also gave a viability, T/C [4] of 22.4%, a viability, T/C [5] of 28% and a viability, T/C [6] of 33%. For the same compound, the viability, T/C [7] was 32.8%, the viability, T/C [8] was 28.9% and the viability, T/C [9] was 23.3%. For the same compound, the viability, T/C [10] was 23.7%, the viability, T/C [11] was 23.2% and the viability, T/C [12] was 27.1%. The viability, T/C [13] was 29.9%, the viability, T/C [14] was 25.1% and the viability, T/C [15] was 24.3%. It also gave a viability, T/C [16] of 21%, a viability, T/C [17] of 24.4% and a viability, T/C [18] of 28.7%. The viability, T/C [19] was 34.4%, the viability, T/C [20] was 30.6% and the viability, T/C [21] was 28.4%. The viability, T/C [22] was 28.4%, the viability, T/C [23] was 20.8% and the viability, T/C [24] was 25.6%. For the same compound, the viability, T/C [25] was 31.3%, the viability, T/C [26] was 27.1% and the viability, T/C [27] was 28.3%. The viability, T/C [28] was 23.7%, the viability, T/C [29] was 28.2% and the viability, T/C [30] was 29.3%. The viability, T/C [31] was 32.2%, the viability, T/C [32] was 26.8% and the viability, T/C [33] was 30%. The viability, T/C [34] was 22.9%, the viability, T/C [35] was 25.4% and the viability, T/C [36] was 28.6%.

With `Cn1ncnc1[C@H]1c2n[nH]c(=O)c3cc(F)cc(c23)N[C@@H]1c1ccc(F)cc1` + COC1C(OC(N)=O)C(O)C(Oc2ccc3c(O)c(NC(=O)c4ccc(O)c(CC=C(C)C)c4)c(=O)oc3c2C)OC1(C)C the IC50 (second compound 0.0316 µM) was greater than 100 nM, the IC50 (second compound 0.1 µM) was greater than 100 nM and the IC50 (second compound 0.316 µM) was greater than 100 nM. It also gave an IC50 (second compound 1 µM) greater than 100 nM, an IC50 (second compound 3.16 µM) greater than 100 nM and an IC50 (second compound 10 µM) greater than 100 nM. For the same compound, the viability, T/C (second compound 0.0316 µM, first compound 0.000316 µM) was 108%, the viability, T/C (second compound 0.0316 µM, first compound 0.001 µM) was 100% and the viability, T/C (second compound 0.0316 µM, first compound 0.00316 µM) was 90%. It also gave a viability, T/C (second compound 0.0316 µM, first compound 0.01 µM) of 88.6%, a viability, T/C [1] of 86.6% and a viability, T/C [2] of 83.1%. It also gave a viability, T/C (second compound 0.1 µM, first compound 0.000316 µM) of 119%, a viability, T/C (second compound 0.1 µM, first compound 0.001 µM) of 87.2% and a viability, T/C (second compound 0.1 µM, first compound 0.00316 µM) of 104%. For the same compound, the viability, T/C (second compound 0.1 µM, first compound 0.01 µM) was 87%, the viability, T/C [7] was 88.5% and the viability, T/C [8] was 90.3%. The viability, T/C (second compound 0.316 µM, first compound 0.000316 µM) was 96.1%, the viability, T/C (second compound 0.316 µM, first compound 0.001 µM) was 104% and the viability, T/C (second compound 0.316 µM, first compound 0.00316 µM) was 98.8%. It also gave a viability, T/C (second compound 0.316 µM, first compound 0.01 µM) of 78.9%, a viability, T/C [13] of 87.3% and a viability, T/C [14] of 85.3%. It also gave a viability, T/C (second compound 1 µM, first compound 0.000316 µM) of 99%, a viability, T/C (second compound 1 µM, first compound 0.001 µM) of 110% and a viability, T/C (second compound 1 µM, first compound 0.00316 µM) of 100%. The viability, T/C (second compound 1 µM, first compound 0.01 µM) was 85.4%, the viability, T/C [19] was 89.6% and the viability, T/C [20] was 86.6%. It also gave a viability, T/C (second compound 3.16 µM, first compound 0.000316 µM) of 98%, a viability, T/C (second compound 3.16 µM, first compound 0.001 µM) of 87.1% and a viability, T/C (second compound 3.16 µM, first compound 0.00316 µM) of 105%. For the same compound, the viability, T/C (second compound 3.16 µM, first compound 0.01 µM) was 100%, the viability, T/C [25] was 89.8% and the viability, T/C [26] was 95.6%. The viability, T/C (second compound 10 µM, first compound 0.000316 µM) was 78.8%, the viability, T/C (second compound 10 µM, first compound 0.001 µM) was 86.2% and the viability, T/C (second compound 10 µM, first compound 0.00316 µM) was 97.1%. The viability, T/C (second compound 10 µM, first compound 0.01 µM) was 92.3%, the viability, T/C [31] was 88.7% and the viability, T/C [32] was 87.7%.

With `COc1cccc2c1C(=O)c1c(O)c3c(c(O)c1C2=O)CC(O)(C(=O)CO)CC3OC1CC(N)C(O)C(C)O1` (stereo unspecified) + Nc1ccc(C#CCN(C(=O)Cc2ncc(C(F)(F)F)cc2C(F)(F)F)c2ccc(F)cc2)nn1 the IC50 (second compound 0.0316 µM) was 65.9 nM, the IC50 (second compound 0.1 µM) was 118 nM and the IC50 (second compound 0.316 µM) was 67.7 nM. It also gave an IC50 (second compound 1 µM) of 81 nM, an IC50 (second compound 3.16 µM) of 92.3 nM and an IC50 (second compound 10 µM) of 142 nM. The viability, T/C [1] was 60%, the viability, T/C [2] was 44.3% and the viability, T/C [3] was 32.5%. It also gave a viability, T/C [4] of 30.2%, a viability, T/C [5] of 34.6% and a viability, T/C [6] of 28.3%. For the same compound, the viability, T/C [7] was 52.7%, the viability, T/C [8] was 54.3% and the viability, T/C [9] was 28.9%. The viability, T/C [10] was 33.3%, the viability, T/C [11] was 29.6% and the viability, T/C [12] was 27.2%. It also gave a viability, T/C [13] of 58.4%, a viability, T/C [14] of 45.2% and a viability, T/C [15] of 35.1%. For the same compound, the viability, T/C [16] was 24.8%, the viability, T/C [17] was 28.6% and the viability, T/C [18] was 26.6%. For the same compound, the viability, T/C [19] was 59.2%, the viability, T/C [20] was 47.7% and the viability, T/C [21] was 34.4%. The viability, T/C [22] was 26.4%, the viability, T/C [23] was 28.6% and the viability, T/C [24] was 30.8%. It also gave a viability, T/C [25] of 57.7%, a viability, T/C [26] of 49.3% and a viability, T/C [27] of 31.5%. It also gave a viability, T/C [28] of 23%, a viability, T/C [29] of 36% and a viability, T/C [30] of 24.5%. It also gave a viability, T/C [31] of 54.4%, a viability, T/C [32] of 55.5% and a viability, T/C [33] of 38.7%. It also gave a viability, T/C [34] of 22.6%, a viability, T/C [35] of 32.8% and a viability, T/C [36] of 30.5%.
